The structures appear in SMILES notation. Read-outs that look alike come from different tables or passages of the source.

In general, Ki refers to a dissociation constant, usually derived from enzyme kinetics or from competition with a known ligand.

One assay addresses T1, human MR (Homo sapiens, UniProt P08235).
T1 construct: The full length human MR gene is cloned from a human kidney or human brain cDNA library; His tag from the pAcHLT vector (own knowledge); made in house; host or cells: Sf9 insect cells (baculovirus, pAcHLT transfer vector)
T1 sequence (P08235 1-984): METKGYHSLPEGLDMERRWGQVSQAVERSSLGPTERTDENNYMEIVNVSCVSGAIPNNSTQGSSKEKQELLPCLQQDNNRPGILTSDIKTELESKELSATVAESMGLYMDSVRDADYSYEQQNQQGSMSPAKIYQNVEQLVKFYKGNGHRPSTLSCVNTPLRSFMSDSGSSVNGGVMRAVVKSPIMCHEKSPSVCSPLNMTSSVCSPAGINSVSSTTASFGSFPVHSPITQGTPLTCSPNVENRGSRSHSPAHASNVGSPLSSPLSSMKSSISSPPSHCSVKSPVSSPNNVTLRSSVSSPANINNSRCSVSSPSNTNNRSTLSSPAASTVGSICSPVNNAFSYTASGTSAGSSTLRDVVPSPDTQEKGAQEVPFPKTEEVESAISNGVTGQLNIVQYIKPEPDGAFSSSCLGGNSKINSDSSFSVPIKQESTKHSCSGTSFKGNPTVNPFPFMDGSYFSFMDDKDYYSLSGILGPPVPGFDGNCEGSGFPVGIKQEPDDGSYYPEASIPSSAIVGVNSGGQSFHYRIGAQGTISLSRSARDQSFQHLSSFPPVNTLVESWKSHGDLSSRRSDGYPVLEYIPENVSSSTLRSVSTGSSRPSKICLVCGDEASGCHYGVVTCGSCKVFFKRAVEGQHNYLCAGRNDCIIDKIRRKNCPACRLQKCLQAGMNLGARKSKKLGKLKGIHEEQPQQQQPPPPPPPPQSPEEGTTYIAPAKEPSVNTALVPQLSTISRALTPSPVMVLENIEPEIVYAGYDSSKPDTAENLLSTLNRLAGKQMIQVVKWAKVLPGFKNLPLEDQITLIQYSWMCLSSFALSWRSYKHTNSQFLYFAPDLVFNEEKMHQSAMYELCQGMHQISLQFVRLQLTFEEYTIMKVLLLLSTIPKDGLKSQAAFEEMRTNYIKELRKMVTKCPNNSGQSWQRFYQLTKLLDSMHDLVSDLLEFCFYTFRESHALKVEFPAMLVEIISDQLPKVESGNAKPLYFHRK
The assay is described as follows: Mineralocorticoid Receptor Binding Assay ([3H]-aldosterone). On the procedure: (§1) All ligands, radioligands, solvents, and reagents employed in the binding assays are readily available from commercial sources, or can be readily synthesized by the ordinarily skilled artisan.
The full length human MR gene is cloned from a human kidney or human brain cDNA library. […] The PCR reaction is performed in a final volume of 50 μl containing about 1 μl of a 50× stock solution of polymerase; about 1 μl of a 50× stock solution of dNTP; about 5 μl of an appropriate PCR buffer; about 1 μl of each primer; about […] of a H. kidney or H. brain cDNA library; and about 36 μl of water. The reaction is allowed to denature for about 30 seconds at 95 degrees Celsius, anneal for about 30 seconds at 55 degrees Celsius, and extend for about 5 minutes at 72 degrees Celsius, the sequence being repeated for a total of about 35 cycles. […] To extract the cDNA product from the agarose gel, the QIAEX II Gel Extraction protocol (QIAGEN, Inc.) is employed according to the manufacturer's instructions. Following extraction, the MR cDNA is cloned into an appropriate cloning vector (Zero Blunt TOPO PCR Cloning Kit Invitrogen, Inc.) and a pAcHLT-baculovinis transfer vector (B.D./Pharminogen), then expressed in SF9 insect cells, essentially according to manufacturer's instructions. Sf9 cells are grown at a scale where gram quantity cell pellets are obtained for subsequent use in the MR binding assay. Harvested cell pellets are lysed by repeated freeze-thaw cycles (about 4) in a suitable lysis buffer then centrifuged at about 1×10^3 G (with the supernatant being saved for future assays).
MR binding assays are performed in a final total volume of about 250 μl containing about 20-25 μg of protein and 0.5 nM of [^3H]-aldosterone plus varying concentrations of test compound or vehicle. The assay binding buffer consists of 30 mM sodium molybdate, 30 mM of TRIS-HCl, 5 mM sodium phosphate, 5 mM sodium pyrophosphate, and about 10% glycerol, pH=7.5.
Incubations are carried out at 4 degrees Celsius with shaking for about 16 hours. 200 μl aliquots of each incubation are filtered onto Millipore HA 0.45 micron 96-well filter plates, pre-moistened with cold 30 mM TRIS-HCl. The filter plates are suctioned dry with vacuum and immediately washed 3× with cold 30 mM TRIS-HCl. The plates are then punched out and the amount of receptor-ligand complex is determined by liquid scintillation counting using 4 ml of Ready Protein Plus™ liquid scintillation cocktail.
IC50 values (defined as the concentration of test compound required to decrease [^3H]-aldosterone binding by 50%/o) are then determined.

The next assay has as its target T2, glucocorticoid receptor (Homo sapiens, UniProt P04150).
T2 construct: containing 50-200 ug of A549 cell extract and 1.86 nM [^3H]-dexamethasone; host or cells: A549 human lung epithelial cells (sonicated cell extract)
T2 sequence (P04150 1-777): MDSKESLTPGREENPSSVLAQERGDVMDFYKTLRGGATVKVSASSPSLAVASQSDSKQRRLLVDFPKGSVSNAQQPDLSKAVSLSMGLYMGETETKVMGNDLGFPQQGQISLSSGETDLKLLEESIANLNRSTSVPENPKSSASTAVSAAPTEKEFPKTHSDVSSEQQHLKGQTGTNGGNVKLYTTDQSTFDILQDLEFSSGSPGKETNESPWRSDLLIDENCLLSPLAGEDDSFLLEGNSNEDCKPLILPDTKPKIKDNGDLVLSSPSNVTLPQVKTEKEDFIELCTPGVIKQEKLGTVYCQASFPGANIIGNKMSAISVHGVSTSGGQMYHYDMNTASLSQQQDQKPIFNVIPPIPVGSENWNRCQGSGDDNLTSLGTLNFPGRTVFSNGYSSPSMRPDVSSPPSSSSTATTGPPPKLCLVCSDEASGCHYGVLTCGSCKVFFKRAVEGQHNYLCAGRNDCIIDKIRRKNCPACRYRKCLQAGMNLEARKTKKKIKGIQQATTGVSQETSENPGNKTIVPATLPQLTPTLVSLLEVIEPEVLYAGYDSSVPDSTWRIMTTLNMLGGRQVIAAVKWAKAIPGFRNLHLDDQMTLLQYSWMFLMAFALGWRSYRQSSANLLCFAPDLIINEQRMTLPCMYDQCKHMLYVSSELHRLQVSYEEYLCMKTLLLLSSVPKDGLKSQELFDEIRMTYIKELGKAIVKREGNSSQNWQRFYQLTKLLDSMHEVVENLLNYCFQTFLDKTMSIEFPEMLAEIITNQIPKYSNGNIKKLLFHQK
Description: Glucocorticoid Receptor Binding Assay ([3H]-dexamethasone, A549 cell extract). Conditions: [3H]-dexamethasone binding, read-out: GR Ki. On the procedure: as §1
A549 human lung epithelial cells (ATCC) are grown at a scale where gram quantity cell pellets are obtained. Harvested cell pellets are washed twice in cold phosphate buffered saline, centrifuged, and resuspended in cold assay binding buffer. The assay binding buffer consists of 10% glycerol, 50 mM Tris-HCl (pH7.2), 75 mM sodium chloride, 1.5 mM magnesium chloride, 1.5 mM EDTA, and 10 mM sodium molybdate. Cell suspensions were lysed via sonication, centrifuged, and the “extract” supernatant is snap frozen and stored at −80 C until needed.
GR binding assays are performed in a final volume of 140 ul containing 50-200 ug of A549 cell extract and 1.86 nM [^3H]-dexamethasone (Amersham) plus varying concentrations of test compound or vehicle. Briefly, assays are prepared at RT in 96-well Fisher 3356 plates, each well containing 100 ul of A549 cell extract, 20 ul of [^3H]-dexamethasone, and 20 ul of test compound/vehicle. Incubations are carried out at 4 degrees Celsius for 16 hours. After incubation, 70 ul of 3× dextran-coated charcoal solution is added to each reaction, mixed, and incubated for 8 minutes at RT. 3×-dextran-coated charcoal solution consists of 250 ml assay binding buffer, 3.75 g Norit A charcoal (Sigma), and 1.25 g dextran T-70 (Amersham). Charcoal/unbound radioligand complexes are removed by centrifugation of the plate and 140 ul of supernatant from each well is transferred to another 96 well Optiplate (Packard Instruments). 200 ul of Microscint-20 scinillant (Packard Instruments) is added to each well and amount of receptor bound radioligand is determined using Packard Instruments TopCount instrument.

Where [1] appears, read: [3H]-aldosterone binding, human MR expressed in Sf9 cells, read-out: MR Ki.

Consider `CS(=O)(=O)Nc1cccc(C=C2c3ccccc3CCc3cc(O)ccc32)c1` (mixture of isomers) [Example 162, N-[3-(2-Hydroxy-10,11-dihydro-dibenzo[a,d]cyclohepten-5-ylidenemethyl)-phenyl]-methanesulfonamide], for which the Ki at human MR (setting [1]) and on glucocorticoid receptor was under 500 nM each time.

As to `CCS(=O)(=O)Nc1cccc(C=C2c3ccccc3CCc3cc(OC)ccc32)c1` (mixture of isomers) [Example 163, Ethanesulfonic acid [3-(2-methoxy-10,11-dihydro-dibenzo[a,d]cyclohepten-5-ylidenemethyl)-phenyl]-amide], the Ki on human MR (setting [1]) and at glucocorticoid receptor was under 500 nM each time.

As to `COc1ccc2c(c1)CCc1ccccc1C2=Cc1ccc(N)cc1` (mixture of isomers) [Example 166, 4-(2-Methoxy-10,11-dihydro-dibenzo[a,d]cyclohepten-5-ylidenemethyl)-phenylamine], the Ki on human MR (setting [1]) is under 500 nM; on glucocorticoid receptor, under 10000 nM.

Take `COc1ccc2c(c1)CCc1ccccc1C2=Cc1cccc(O)c1` (mixture of isomers) [Example 167, 3-(2-Methoxy-10,11-dihydro-dibenzo[a,d]cyclohepten-5-ylidenemethyl)-phenol]: the inhibition constant Ki at human MR (setting [1]) and on glucocorticoid receptor was under 500 nM in each case.

Turning to `COc1ccc2c(c1)CCc1ccccc1C2=Cc1ccc(O)cc1` (mixture of isomers) [Example 168, 4-(2-Methoxy-10,11-dihydro-dibenzo[a,d]cyclohepten-5-ylidenemethyl)-phenol], the inhibition constant (Ki) at human MR was under 500 nM; on glucocorticoid receptor it was under 1000 nM.

For the molecule `Oc1ccc(C=C2c3ccccc3CCc3cc(O)ccc32)cc1` (mixture of isomers) [Example 169, 5-(4-Hydroxy-benzylidene)-10,11-dihydro-5H-dibenzo[a,d]cyclohepten-2-ol], the Ki at human MR (setting [1]) and at glucocorticoid receptor was under 500 nM throughout.

In the case of `CS(=O)(=O)Nc1cccc(C=C2c3ccccc3CCc3cc(O)c(O)cc32)c1` (mixture of isomers) [Example 171, N-[3-(2,3-Dihydroxy-10,11-dihydro-dibenzo[a,d]cyclohepten-5-ylidenemethyl)-phenyl]-methanesulfonamide], the inhibitory constant (Ki) on human MR (setting [1]) and at glucocorticoid receptor was under 500 nM in each case.

As for `CS(=O)(=O)Nc1cccc(C=C2c3ccccc3CCc3c(Cl)cccc32)c1` (mixture of isomers) [Example 205(a), N-[3-(1-Chloro-10,11-dihydro-dibenzo[a,d]cyclohepten-5-ylidenemethyl)-phenyl]-methanesulfonamide], the Ki on human MR (setting [1]) and at glucocorticoid receptor was under 500 nM in each case.

In the case of `CCS(=O)(=O)Nc1cccc(C=C2c3ccccc3CCc3c(Cl)cccc32)c1` (mixture of isomers) [Example 208(a), Ethanesulfonic acid [3-(1-chloro-10,11-dihydro-dibenzo[a,d]cyclohepten-5-ylidenemethyl)-phenyl]-amide], the Ki at human MR (setting [1]) and on glucocorticoid receptor was under 500 nM in each case.

Regarding `O=[N+]([O-])c1cccc(/C=C2/c3ccccc3OCc3c(Cl)cccc32)c1` [Example 272, 7-Chloro-11-(3-nitro-benzylidene)-6,11-dihydro-dibenzo[b,e]oxepine], at glucocorticoid receptor, the Ki was under 10000 nM.

Consider `CS(=O)(=O)Nc1cccc(/C=C2\c3ccccc3CCc3ccc(S(C)(=O)=O)cc32)c1` [Example 324], for which the Ki on glucocorticoid receptor is under 1000 nM.

Consider `CCOc1ccc2c(c1)CCc1ccccc1C2=Cc1cccc(NS(C)(=O)=O)c1` [Example 331], for which the inhibition constant Ki on glucocorticoid receptor was under 500 nM.

For the molecule `CCCOc1ccc2c(c1)CCc1ccccc1C2=Cc1cccc(NS(C)(=O)=O)c1` [Example 332], on glucocorticoid receptor, the Ki is under 500 nM.

In the case of `O=c1[nH]c2ccc(/C=C3/c4ccccc4COc4cc(F)ccc43)cc2[nH]1` [Example 631], the Ki at glucocorticoid receptor was under 1000 nM.

In the case of `COc1cccc2c1SCc1ccccc1C2=Cc1cccc(NS(C)(=O)=O)c1` [Example 686], the Ki at glucocorticoid receptor was under 500 nM.

Turning to `CCNC(=O)Nc1cccc(C=C2c3ccccc3CSc3c(C)cccc32)c1` [Example 689], the inhibition constant (Ki) on glucocorticoid receptor was under 500 nM.

As for `O=S(=O)(Nc1cccc(/C=C2\c3ccccc3CSc3ccccc32)c1)c1ccc(Cl)c(Cl)c1` [Example 690], at glucocorticoid receptor, the Ki was under 1000 nM.

On to `CS(=O)(=O)Nc1cccc(C(C(=O)O)=C2c3ccccc3CCc3ccccc32)c1` [Example 754, (10,11-Dihydro-dibenzo[a,d]cyclohepten-5-ylidene)-(3-methanesulfonylamino-phenyl)-acetic acid], for which the Ki on glucocorticoid receptor is under 500 nM.

(Values after patent US20060063759A1, “Tricyclic steroid hormone nuclear receptor modulators” (priority 2002, published 2006).)
